Holding throughout (format): physicochemical
Series [1] can be described thus: Solubility in toluene (Compound Properties, Table 1). Particulars: organic solvent or mixture.
Series [2] in a line: Solubility as observed during work-up of the synthesis. The note with it: for solubility of the isolated solid (in words): in toluene and dichloromethane (DCM). As for the experimental part: To 2.0 g of dichlorobathophenanthroline (5 mM) from Example 1 was added 3.0 g (11 mM) boronic acid. To this was added 0.15 g Pd2 DBA3 (0.15 mM), 0.1 g tricyclohexylphosphine (0.35 mM) and 3.75 g potassium phosphate (17 mM), and all were dissolved into 30 mL dioxane and 15 mL water. This was mixed and heated in a glove box at 100° C. for 1 hr, then warmed gently (minimum rheostat setting) under nitrogen overnight. On reaching about 80° C. the mixture was a tan brown slurry which slowly became clear brown with a dense precipitate. As the solution refluxed (air condensor) a white powdery precipitate formed. The mixture was cooled and removed from the glove box. The dioxane was removed by evaporation and additional water added. A light brown gummy solid was isolated by filtration and washed with water. […] The product was Compound 4.
Take 2.0 g of dichloro-phen (8 mM) in glove box and add 4.7 g (17 mM) boronic acid. Add 0.15 g Pd2 DBA3 (0.15 mM), 0.1 g tricyclohexylphosphine (0.35 mM) and 3.75 g potassium phosphate (17 mM) and dissolve all into 30 mL dioxane and 15 mL water. Mix and heat in glove box in mantle at 100 C for 1 hr then warm gently (minimum rheostat setting) under nitrogen overnight. Solution immediately is dark purple but on reaching ˜80 C it is a tan brown slurry which slowly becomes clear brown. As the solution refluxes (air condensor) it remains clear brown. Cool and work up by removing from glove box and evaporate out the dioxane then add more water. Filter off light brown gummy solid and wash with water. […] The structure was confirmed by NMR analysis to be Compound 14:
Take 2.5 g of dichloro-phen (10 mM) in glove box and add 8.0 g (22 mM) boronic ester. Add 0.30 g Pd2 DBA3 (0.30 mM), 0.2 g tricylcohexylphosphine (0.70 mM) and 7.5 g potassium phosphate (34 mM) and dissolve all into 60 mL dioxane and 30 mL water. Mix and heat in glove box in mantle at 100 C for 1 hr then warm gently (minimum rheostat setting) under nitrogen overnight. Solution immediately is dark purple but on reaching ˜80 C it is a tan brown slurry which slowly becomes clear brown. […]

The nature of series [3]: Solubility in anisole (footnotes of Table 1). The note with it: organic solvent or mixture.

Converted amounts (≈) assume the structure as drawn.

For the compound `c1ccc(-c2cc(-c3ccc(-c4ccc5ccccc5c4)cc3)nc3c2ccc2c(-c4ccccc4)cc(-c4ccc(-c5ccc6ccccc6c5)cc4)nc23)cc1` [Compound 13], in series [1], the solubility was determined as 2000 µg/mL (≈ 2.71 mM).

As to `c1ccc(-c2cc(-c3cccc(-n4c5ccccc5c5ccccc54)c3)nc3c2ccc2c(-c4ccccc4)cc(-c4cccc(-n5c6ccccc6c6ccccc65)c4)nc23)cc1` [Compound 1], the solubility in series [1] was found to be 4800 µg/mL (≈ 5.89 mM).

For `c1ccc(-c2cc(-c3ccc(N(c4ccccc4)c4ccccc4)cc3)nc3c2ccc2c(-c4ccccc4)cc(-c4ccc(N(c5ccccc5)c5ccccc5)cc4)nc23)cc1` [Compound 4], the “solubility of the isolated solid (in words)” value in series [2] is “dissolved well”. For the same compound, the solubility in series [1] turned out to be 31300 µg/mL (≈ 38.2 mM).

Regarding `c1ccc(-c2cc(-c3ccc(-c4cccc5ccccc45)cc3)nc3c2ccc2c(-c4ccccc4)cc(-c4ccc(-c5cccc6ccccc56)cc4)nc23)cc1` [Compound 3], the solubility in series [1] was 4500 µg/mL (≈ 6.11 mM).

Take `Fc1ccccc1-c1cc(-c2ccccc2)c2ccc3c(-c4ccccc4)cc(-c4ccccc4F)nc3c2n1` [Compound 10]: the solubility in series [1] is 22200 µg/mL (≈ 42.6 mM).

Consider `c1ccc(-c2cc(-c3ccccc3)c3ccc4c(-c5ccccc5)cc(-c5ccc6ccccc6c5)nc4c3n2)cc1` [Compound 18], for which the solubility in series [1] turned out to be 2300 µg/mL (≈ 4.3 mM).

`c1ccc(-c2ccccc2-c2cc(-c3ccccc3)c3ccc4c(-c5ccccc5)cc(-c5ccccc5-c5ccccc5)nc4c3n2)cc1` [Compound 9]: in series [1], the solubility is 25600 µg/mL (≈ 40.2 mM).

In the case of `c1cc(-c2ccnc3c2ccc2c(-c4cccc(-n5c6ccccc6c6ccccc65)c4)ccnc23)cc(-n2c3ccccc3c3ccccc32)c1` [Compound 15], in series [2] (solvent not stated, observed at chromatography/crystallisation), the “solubility of the product (in words)” value is given as “extremely soluble”. Further, the solubility in series [1] was found to be 20000 µg/mL (≈ 30.2 mM).

For `c1ccc(N(c2ccccc2)c2ccc(-c3ccnc4c3ccc3c(-c5ccc(N(c6ccccc6)c6ccccc6)cc5)ccnc34)cc2)cc1` [Compound 14, 4,7-bis(4-diphenylaminophenyl)-1,10-phenanthroline], in series [2], the “solubility of the isolated solid (in words)” value is on record as “dissolves well”.

Turning to `c1ccc(-c2cc(-c3ccc(N(c4ccccc4)c4ccccc4)cc3)c3ccc4c(-c5ccc(N(c6ccccc6)c6ccccc6)cc5)cc(-c5ccccc5)nc4c3n2)cc1` [Compound 2], in series [1], the solubility amounted to 7600 µg/mL (≈ 9.28 mM).

For `c1ccc(-c2cc(-c3ccccc3)c3ccc4c(-c5ccccc5)cc(-c5cccc6ccccc56)nc4c3n2)cc1` [Compound 17], the solubility in series [1] is 4200 µg/mL (≈ 7.86 mM).

For `c1ccc(-c2cc(-c3ccc4ccccc4c3)nc3c2ccc2c(-c4ccccc4)cc(-c4ccc5ccccc5c4)nc23)cc1` [Compound 21], the solubility in series [3] is 3000 µg/mL (≈ 5.13 mM); in series [1], 1000 µg/mL (≈ 1.71 mM).

In the case of `c1ccc(-c2cccc(-c3cc(-c4ccccc4)c4ccc5c(-c6ccccc6)cc(-c6cccc(-c7ccccc7)c6)nc5c4n3)c2)cc1` [Compound 16], the solubility in series [3] came out at 5000 µg/mL (≈ 7.85 mM); in series [1], 800 µg/mL (≈ 1.26 mM).

As for `c1ccc(N(c2ccccc2)c2cccc(-c3ccnc4c3ccc3c(-c5cccc(N(c6ccccc6)c6ccccc6)c5)ccnc34)c2)cc1` [Compound 20], in series [1], the solubility stood at 32200 µg/mL (≈ 48.3 mM).

Turning to `c1ccc(-c2ccc3c(c2)c2cc(-c4ccccc4)ccc2n3-c2cccc(-c3cc(-c4ccccc4)c4ccc5c(-c6ccccc6)cc(-c6cccc(-n7c8ccc(-c9ccccc9)cc8c8cc(-c9ccccc9)ccc87)c6)nc5c4n3)c2)cc1` [Compound 12], in series [1], the solubility came out at 22800 µg/mL (≈ 20.4 mM).

As to `c1ccc(-c2cc(-c3c4ccccc4c(-c4ccc(-c5cccc6ccccc56)cc4)c4ccccc34)nc3c2ccc2c(-c4ccccc4)cc(-c4c5ccccc5c(-c5ccc(-c6cccc7ccccc67)cc5)c5ccccc45)nc23)cc1` [Compound 11], in series [1], the solubility is 10100 µg/mL (≈ 9.27 mM).

What is called solubility is the concentration that dissolves in the medium under given conditions.

(Values after patent US8309731B2, “Electronic device including phenanthroline derivative” (E I du Pont de Nemours and Company, priority 2011, dated 2012).)
